Laboratory results as given in patent US20260108546A1 (ELI LILLY AND COMPANY, priority 2024, published 2026).

Molecular target: T1, hGIP-R (Homo sapiens, UniProt P48546)
T1 construct: expressed in transfected cells; host or cells: HEK-293 clonal cell lines
T1 sequence (P48546 22-466): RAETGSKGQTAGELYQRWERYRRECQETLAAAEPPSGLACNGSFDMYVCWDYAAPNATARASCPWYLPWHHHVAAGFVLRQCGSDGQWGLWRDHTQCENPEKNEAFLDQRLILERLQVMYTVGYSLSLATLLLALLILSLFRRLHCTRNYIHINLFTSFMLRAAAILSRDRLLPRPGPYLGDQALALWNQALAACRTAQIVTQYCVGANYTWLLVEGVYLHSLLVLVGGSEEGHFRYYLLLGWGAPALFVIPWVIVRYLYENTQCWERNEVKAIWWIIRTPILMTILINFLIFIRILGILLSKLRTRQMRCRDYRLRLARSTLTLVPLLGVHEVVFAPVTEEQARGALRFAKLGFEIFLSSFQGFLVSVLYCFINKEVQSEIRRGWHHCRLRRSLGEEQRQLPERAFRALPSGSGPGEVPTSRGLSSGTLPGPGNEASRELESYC
Experiment: Functional hGIP-R Assay (cAMP formation, HTRF)
Format: cell-based
Conditions: for Emax: cAMP efficacy, percent of maximal response to GIP(1-42)OH, 37° C., 0.1% bovine casein, arithmetic mean ± SEM; for EC50: cAMP potency, HEK-293 cells expressing hGIP-R, incubated at 37° C. in the presence of 0.1% bovine casein, geometric mean, read-out: Human GIP-R EC50, nM (SEM, n)
In short: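 Relative EC50 and Emax came from four-parameter logistic fits of cAMP as a percent of the human GIP (1-42) OH maximal response. The cAMP was measured by competitive HTRF after 30 min, 37 °C compound exposure of hGIP-R HEK-293 clones in IBMX (250 μM)-containing medium.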

Emax [%]	EC50 [nM]	SMILES
118 ± 0.533	99.3	Cn1cc(C[C@@H](NC(=O)[C@H]2C[C@@H]2c2ccc(-c3cnc4nn(C)cc4c3)cc2)C(=O)NC(C)(C)Cn2nc(C(F)(F)F)cc2-c2cnn(C)n2)cn1 [Example 66, (1S,2S)-N—((R)-1-((2-Methyl-1-(5-(2-methyl-2H-1,2,3-triazol-4-yl)-3-(trifluoromethyl)-1H-pyrazol-1-yl)propan-2-yl)amino)-3-(1-methyl-1H-pyrazol-4-yl)-1-oxopropan-2-yl)-2-(4-(2-methyl-2H-pyrazolo[3,4-b]pyridin-5-yl)phenyl)cyclopropane-1-carboxamide]
115 ± 8.68	45	Cn1cc(C[C@@H](NC(=O)[C@H]2C[C@@H]2c2ccc(-c3cnc4nn(C)cc4c3)cc2)C(=O)NC(C)(C)Cn2nc(C(F)(F)F)cc2-c2ccn(C[C@H]3C[C@H](F)C3)n2)cn1 [Example 67, (1S,2S)-N—((R)-1-((1-(1-(((trans)-3-fluorocyclobutyl)methyl)-5′-(trifluoromethyl)-1H,2′H-[3,3′-bipyrazol]-2′-yl)-2-methylpropan-2-yl)amino)-3-(1-methyl-1H-pyrazol-4-yl)-1-oxopropan-2-yl)-2-(4-(2-methyl-2H-pyrazolo[3,4-b]pyridin-5-yl)phenyl)cyclopropane-1-carboxamide]
86.9 ± 7.93	0.904	CC(C)(Cn1nc(C(F)(F)F)cc1-c1cn[nH]n1)NC(=O)[C@@H](Cc1cnc2ncccn12)NC(=O)[C@H]1C[C@@H]1c1ccc(-c2cnc3nc(C(F)(F)F)cn3c2)cc1 [Example 68, (1S,2S)-N—((R)-1-((1-(5-(2H-1,2,3-Triazol-4-yl)-3-(trifluoromethyl)-1H-pyrazol-1-yl)-2-methylpropan-2-yl)amino)-3-(imidazo[1,2-a]pyrimidin-3-yl)-1-oxopropan-2-yl)-2-(4-(2-(trifluoromethyl)imidazo[1,2-a]pyrimidin-6-yl)phenyl)cyclopropane-1-carboxamide]
87.8 ± 8.06	34	Cn1cc2cc(-c3ccc([C@H]4C[C@@H]4C(=O)N[C@H](Cc4cnc5ncccn45)C(=O)NC(C)(C)Cn4nc(C(F)(F)F)cc4-c4cn[nH]n4)cc3)cnc2n1 [Example 69, (1S,2S)-N-((R)-1-((1-(5-(2H-1,2,3-Triazol-4-yl)-3-(trifluoromethyl)-1H-pyrazol-1-yl)-2-methylpropan-2-yl)amino)-3-(imidazo[1,2-a]pyrimidin-3-yl)-1-oxopropan-2-yl)-2-(4-(2-methyl-2H-pyrazolo [3,4-b]pyridin-5-yl)phenyl)cyclopropane-1-carboxamide]
102 ± 2.2	158	CN(C(=O)[C@H]1C[C@@H]1c1ccc(-c2cnc3nn(C)cc3c2)cc1)[C@H](Cc1cnn(C)c1)C(=O)NC(C)(C)Cn1nc(C(F)(F)F)cc1-c1cn[nH]n1 [Example 70, (1S,2S)-N-((R)-1-((1-(5-(2H-1,2,3-Triazol-4-yl)-3-(trifluoromethyl)-1H-pyrazol-1-yl)-2-methylpropan-2-yl)amino)-3-(1-methyl-1H-pyrazol-4-yl)-1-oxopropan-2-yl)-N-methyl-2-(4-(2-methyl-2H-pyrazolo [3,4-b]pyridin-5-yl)phenyl)cyclopropane-1-carboxamide]
102 ± 3.65	13.6	CC(C)(Cn1cc(C(F)(F)F)cn1)NC(=O)[C@@H](Cc1cnc2ncccn12)NC(=O)[C@H]1C[C@@H]1c1ccc(-c2cnc3nc(C4CC(F)(F)C4)cn3c2)cc1 [Example 74, (1S,2S)-2-(4-(2-(3,3-Difluorocyclobutyl)imidazo[1,2-a]pyrimidin-6-yl)phenyl)-N-((R)-3-(imidazo[1,2-a]pyrimidin-3-yl)-1-((2-methyl-1-(4-(trifluoromethyl)-1H-pyrazol-1-yl)propan-2-yl)amino)-1-oxopropan-2-yl)cyclopropane-1-carboxamide]
119 ± 6.64	65	COCc1cn2cc(-c3ccc([C@H]4C[C@@H]4C(=O)N[C@H](Cc4cnc5ncccn45)C(=O)NC(C)(C)Cn4cc(C(F)(F)F)cn4)cc3)cnc2n1 [Example 75, (1S,2S)-N-((R)-3-(Imidazo[1,2-a]pyrimidin-3-yl)-1-((2-methyl-1-(4-(trifluoromethyl)-1H-pyrazol-1-yl)propan-2-yl)amino)-1-oxopropan-2-yl)-2-(4-(2-(methoxymethyl)imidazo[1,2-a]pyrimidin-6-yl)phenyl)cyclopropane-1-carboxamide]
97.2 ± 7.63	16.2	CC(C)(Cn1cc(C(F)(F)F)cn1)NC(=O)[C@@H](Cc1cnc2ncccn12)NC(=O)[C@H]1C[C@@H]1c1ccc(-c2cnc3nc(C4CC4)cn3c2)cc1 [Example 76, (1S,2S)-2-(4-(2-Cyclopropylimidazo[1,2-a]pyrimidin-6-yl)phenyl)-N-((R)-3-(imidazo[1,2-a]pyrimidin-3-yl)-1-((2-methyl-1-(4-(trifluoromethyl)-1H-pyrazol-1-yl)propan-2-yl)amino)-1-oxopropan-2-yl)cyclopropane-1-carboxamide]
103 ± 12	88.2	CC(C)(Cn1cc(C(F)(F)F)cn1)NC(=O)[C@@H](Cc1cnc2ncccn12)NC(=O)[C@H]1C[C@@H]1c1ccc(-c2cnc3nn(CC4CCC4)cc3c2)cc1 [Example 77, (1S,2S)-2-(4-(2-(Cyclobutylmethyl)-2H-pyrazolo[3,4-b]pyridin-5-yl)phenyl)-N-((R)-3-(imidazo[1,2-a]pyrimidin-3-yl)-1-((2-methyl-1-(4-(trifluoromethyl)-1H-pyrazol-1-yl)propan-2-yl)amino)-1-oxopropan-2-yl)cyclopropane-1-carboxamide]
113 ± 18.8	20.3	CC(C)(Cn1cc(C(F)(F)F)cn1)NC(=O)[C@@H](Cc1cnc2ncccn12)NC(=O)[C@H]1C[C@@H]1c1ccc(-c2cnc3nc(C4CCC4)cn3c2)cc1 [Example 78, (1S,2S)-2-(4-(2-Cyclobutylimidazo[1,2-a]pyrimidin-6-yl)phenyl)-N-((R)-3-(imidazo[1,2-a]pyrimidin-3-yl)-1-((2-methyl-1-(4-(trifluoromethyl)-1H-pyrazol-1-yl)propan-2-yl)amino)-1-oxopropan-2-yl)cyclopropane-1-carboxamide]
104 ± 5	25.1	CC(C)(Cn1cc(C(F)(F)F)cn1)NC(=O)[C@@H](Cc1cnc2ncccn12)NC(=O)[C@H]1C[C@@H]1c1ccc(-c2cnc3nc(C(F)F)cn3c2)cc1 [Example 79, (1S,2S)-2-(4-(2-(Difluoromethyl)imidazo[1,2-a]pyrimidin-6-yl)phenyl)-N-((R)-3-(imidazo[1,2-a]pyrimidin-3-yl)-1-((2-methyl-1-(4-(trifluoromethyl)-1H-pyrazol-1-yl)propan-2-yl)amino)-1-oxopropan-2-yl)cyclopropane-1-carboxamide]
109 ± 4.1	28.6	CC(C)(Cn1cc(C(F)(F)F)cn1)NC(=O)[C@@H](Cc1cnc2ncccn12)NC(=O)[C@H]1C[C@@H]1c1ccc(-c2cnc3nc(C(C)(F)F)cn3c2)cc1 [Example 80, (1S,2S)-2-(4-(2-(1,1-Difluoroethyl)imidazo[1,2-a]pyrimidin-6-yl)phenyl)-N-((R)-3-(imidazo[1,2-a]pyrimidin-3-yl)-1-((2-methyl-1-(4-(trifluoromethyl)-1H-pyrazol-1-yl)propan-2-yl)amino)-1-oxopropan-2-yl)cyclopropane-1-carboxamide]
117 ± 0.667	33.1	CC(C)(Cn1cc(C(F)(F)F)cn1)NC(=O)[C@@H](Cc1cnc2ncccn12)NC(=O)[C@H]1C[C@@H]1c1ccc(-c2cnc3nc(C4(C)CC4)cn3c2)cc1 [Example 81, (1S,2S)-N-((R)-3-(Imidazo[1,2-a]pyrimidin-3-yl)-1-((2-methyl-1-(4-(trifluoromethyl)-1H-pyrazol-1-yl)propan-2-yl)amino)-1-oxopropan-2-yl)-2-(4-(2-(1-methylcyclopropyl)imidazo[1,2-a]pyrimidin-6-yl)phenyl)cyclopropane-1-carboxamide]
106 ± 2.58	36.4	CCc1cn2cc(-c3ccc([C@H]4C[C@@H]4C(=O)N[C@H](Cc4cnc5ncccn45)C(=O)NC(C)(C)Cn4cc(C(F)(F)F)cn4)cc3)cnc2n1 [Example 82, (1S,2S)-2-(4-(2-Ethylimidazo[1,2-a]pyrimidin-6-yl)phenyl)-N-((R)-3-(imidazo[1,2-a]pyrimidin-3-yl)-1-((2-methyl-1-(4-(trifluoromethyl)-1H-pyrazol-1-yl)propan-2-yl)amino)-1-oxopropan-2-yl)cyclopropane-1-carboxamide]
95.4 ± 7.12	44.1	Cc1cn2cc(-c3ccc([C@H]4C[C@@H]4C(=O)N[C@H](Cc4cnc5ncccn45)C(=O)NC(C)(C)Cn4cc(C(F)(F)F)cn4)cc3)cnc2n1 [Example 83, (1S,2S)-N-((R)-3-(Imidazo[1,2-a]pyrimidin-3-yl)-1-((2-methyl-1-(4-(trifluoromethyl)-1H-pyrazol-1-yl)propan-2-yl)amino)-1-oxopropan-2-yl)-2-(4-(2-methylimidazo[1,2-a]pyrimidin-6-yl)phenyl)cyclopropane-1-carboxamide]
